Here are results for two compounds from patent publication US12366579B2, “Sulfur-heterocycle exchange chemistry and uses thereof” (University of Virginia Patent Foundation, priority 2019, dated 2025).

The term IC50 denotes the concentration that gives 50% inhibition.

Experiment [1] has as its target T1, membrane proteins in human cell proteomes (Homo sapiens, UniProt P51970).
T1 construct: endogenous in cells
Put plainly: Chemical proteomic identification of membrane protein lysine sites modified by TH211. Type of experiment: binding. Conditions: NDUA8 human, Uniprot P51970; amino acid modified K. The procedure:
(§1) The light proteome aliquots (2.3 mg/mL, 432 μL) were treated with the probe (5 μL, 100× fresh stock in DMSO) and the heavy proteome aliquots were treated with either the same probe or DMSO (no probe) at 37° C. for 1 h. Then the samples were subjected to click reaction with the desthiobiotin-PEG3-azide (10 mM in DMSO, 10 μL, final concentration 200 μM) in the presence of TCEP (50 mM, 10 μL), TBTA (1.7 mM, 33 μL) and CuSO4 (50 mM, 10 μL) at room temperature for 1 h. The light and the heavy were mixed in the chloroform-methanol extraction step. The subsequent steps including reduction with dithiothreitol, alkylation with iodoacetamide, digestion with Trypsin/Lys-C, enrichment with avidin beads were conducted as previously described.^72,51
(§2) Data acquisition: The enriched peptide samples were analyzed by LC-MS/MS on an Easy-nLC 1200 (Thermo Scientific, Waltham, Massachusetts, United States of America) coupled with an Orbitrap Q Exactive Plus mass spectrometer (Thermo Scientific, Waltham, Massachusetts, United States of America). […] A top 10 data-dependent acquisition method was used, which consisted of one full scan […] scan (m/z 375-1,500) followed by ten MS2 scans of the most abundant ions recorded in the […] scan.
(§3) Data analysis: Identification of peptides and target proteins from the LC-MS/MS raw data was achieved using the Byonic software package (Protein Metrics Inc., Cupertino, California, United States of America) to search against a modified human protein database (UniProt human protein database, angiotensin I and vasoactive intestinal peptide standards; 40660 proteins) with parameters previously described.^72 Identification of probe-modified peptides was accomplished with variable (common) modification of +635.27374 Da for TH211, +608.26284 for TH214, +578.25228 for TH216 on tyrosine and lysine residues. Other added mass such as variable methionine oxidation (+15.9949 Da), fixed cysteine carbamidomethylation (+57.02146 Da) and the SILAC heavy amino acids (+10.0083 Da for R, +8.0142 Da for K) were included in search. The results from Byonic search were imported into Skyline-daily to determine SILAC ratio (SR) of light/heavy peptides.^51 To account for variations in mixing and sample preparation, SRs of peptide from probe/no-probe (the light was treated with the probe while the heavy was treated with DMSO) were normalized to those from probe/probe (both the light and the heavy were treated with the probe). Unless otherwise stated, the results from Skyline-daily output were filtered in R to keep peptides of high quality that meet the following criteria: Byonic score ≥300; a precursor mass error within 5 ppm; normalized SR≥5, with both isotop dot-product (iDOTP) and ratio dot-product (rDOTP)≥0.8. Comparison of probe-modified sites across all probes and cells were performed using the R package ggplot2 and Venn diagrams were generated with the VennDiagram R package.^72 Other bioinformatics analysis such as the domain enrichment analysis and the DrugBank analysis were performed as previously described.^72

In experiment [2] the target is T2, membrane proteins in human cell proteomes (Homo sapiens, UniProt Q02750).
T2 construct: endogenous in cells
T2 sequence (Q02750 whole entry): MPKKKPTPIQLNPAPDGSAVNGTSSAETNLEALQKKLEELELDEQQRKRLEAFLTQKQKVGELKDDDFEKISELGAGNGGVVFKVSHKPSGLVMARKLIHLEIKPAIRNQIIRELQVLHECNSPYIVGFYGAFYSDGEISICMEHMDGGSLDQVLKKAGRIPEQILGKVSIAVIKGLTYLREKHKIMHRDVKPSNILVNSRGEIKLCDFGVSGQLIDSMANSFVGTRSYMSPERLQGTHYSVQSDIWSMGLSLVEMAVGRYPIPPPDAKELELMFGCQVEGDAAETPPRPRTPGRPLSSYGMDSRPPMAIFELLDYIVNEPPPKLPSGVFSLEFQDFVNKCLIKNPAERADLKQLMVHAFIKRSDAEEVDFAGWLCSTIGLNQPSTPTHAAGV
Described as above. Type of experiment: binding. Conditions: MP2K1 human, Uniprot Q02750; amino acid modified K. The procedure:
as §1, §2, §3

Experiment [3] addresses T3, membrane proteins in human cell proteomes (Homo sapiens, UniProt Q9BQB6).
T3 construct: endogenous in cells
The description is as above. It counts as binding. Conditions: VKOR1 human, Uniprot Q9BQB6, amino acid modified K. How it is done:
as §1, §2, §3

Experiment [4] has as its target T4, membrane proteins in human cell proteomes (Homo sapiens, UniProt Q9P032).
T4 construct: endogenous in cells
The description is as above. Conditions: NDUF4 human, Uniprot Q9P032; amino acid modified K. Type of experiment: binding. How it is done: as §1, §2, §3

The test system of experiment [5] is membrane proteins in human cell proteomes. The experiment is described as above. Conditions: amino acid modified K. Type of experiment: binding. The procedure: as §1, §2, §3
Experiment [6] deals with T5, recombinant human diacylglycerol kinase-alpha (DGKA) (Homo sapiens, UniProt P23743).
T5 construct: FLAG (N); made in house; host or cells: HEK293T, transient transfection; lysate used unpurified
T5 sequence (P23743 whole entry): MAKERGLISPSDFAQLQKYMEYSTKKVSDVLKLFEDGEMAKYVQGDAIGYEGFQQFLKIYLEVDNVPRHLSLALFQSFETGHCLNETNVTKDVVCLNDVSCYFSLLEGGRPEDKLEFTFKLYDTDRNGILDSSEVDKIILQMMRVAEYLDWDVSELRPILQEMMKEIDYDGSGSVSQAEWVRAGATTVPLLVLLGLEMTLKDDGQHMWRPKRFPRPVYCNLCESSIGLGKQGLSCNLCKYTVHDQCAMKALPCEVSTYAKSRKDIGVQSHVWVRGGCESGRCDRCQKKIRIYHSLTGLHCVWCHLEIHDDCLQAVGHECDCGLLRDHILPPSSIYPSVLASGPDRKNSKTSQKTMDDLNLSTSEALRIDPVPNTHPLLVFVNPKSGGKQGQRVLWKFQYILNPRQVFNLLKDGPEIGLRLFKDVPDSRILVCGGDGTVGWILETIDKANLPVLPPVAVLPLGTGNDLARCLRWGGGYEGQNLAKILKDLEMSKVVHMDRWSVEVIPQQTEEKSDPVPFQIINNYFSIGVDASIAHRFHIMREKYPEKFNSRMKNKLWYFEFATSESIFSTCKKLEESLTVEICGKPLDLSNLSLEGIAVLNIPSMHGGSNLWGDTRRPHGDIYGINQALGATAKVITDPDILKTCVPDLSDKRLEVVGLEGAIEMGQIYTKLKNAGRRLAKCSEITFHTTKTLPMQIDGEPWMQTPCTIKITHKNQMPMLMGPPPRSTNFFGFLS
Put plainly: Gel-based probe labeling of recombinant DGKA with TH SuTEx probes. Type of experiment: binding. Conditions: FIG. 39D, left panel. How it is done:
(§4) Gel-Based Chemical Proteomic Assay
Proteome aliquots (2 mg/mL, 49 μL) were treated with probes at indicated concentration (1 μL, 50× stock in DMSO) at 37° C. for 1 h. The subsequent conjugation with fluorophore was accomplished by copper-catalyzed azide-alkyne cycloaddition (CuAAC) with rhodamine-azide (TAMRA-azide, 1.25 mM, 1 μL, final concentration of 25 μM) in the presence of tris(2-carboxyethyl)phosphine (TCEP, 50 mM fresh in water, 1 μL, final concentration of 1 mM), tris[(1-benzyl-1H-1,2,3-triazol-4-yl)methyl]amine (TBTA, 1.7 mM in 4:1 t-butanol/DMSO, 3 μL, final concentration of 100 μM) and CuSO4 (50 mM, 1 μL, final concentration of 1 mM). For samples of live cell treatment, it started with click reaction without the step of the probe treatment in vitro. After 1 h incubation at room temperature, reactions were quenched by adding 4×SDS-PAGE loading buffer and beta-mercaptoethanol (17 μL) and samples were resolved by SDS-PAGE followed by in-gel fluorescence scanning.

The target of experiment [7] is T6, recombinant GSTP1 lysates (Homo sapiens, UniProt P09211).
T6 construct: FLAG (C); host or cells: HEK293T, transient transfection; soluble proteome used unpurified
T6 sequence (P09211 whole entry): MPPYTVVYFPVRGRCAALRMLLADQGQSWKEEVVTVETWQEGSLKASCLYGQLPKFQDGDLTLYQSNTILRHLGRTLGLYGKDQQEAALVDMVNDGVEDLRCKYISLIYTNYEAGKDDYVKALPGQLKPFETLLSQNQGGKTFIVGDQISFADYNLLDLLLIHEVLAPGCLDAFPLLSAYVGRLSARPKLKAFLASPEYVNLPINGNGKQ
Put plainly: GSTP1 biochemical substrate assay (GSH conjugation to BDNB). Conditions: inhibitor 30 min at 37° C.; n=3; read-out: IC50, in vitro potency against GSTP1 by GSH substrate assay. The procedure: GSTP1 Biochemical Substrate Assay
Recombinant GSTP1-HEK293T soluble cell proteomes were diluted to 1 mg ml^−1 in assay buffer (100 mM NaH2PO4, pH 7.0). Samples were treated with inhibitor at indicated concentrations for 30 min at 37° C. GSH stock solution (250 mM in water) was diluted to 4 mM in assay buffer and 25 μl of diluted GSH solution was added to each sample. A substrate stock solution of 75 mM 1-bromo-2,4-dinitrobenzene […] in ethanol was diluted to 2 mM in assay buffer. Samples (25 μl) were aliquoted into a 96-well plate and spun briefly via centrifuge. Next, 50 μl of 2 mM BDNB was added to each well and the reaction was monitored in kinetic mode by measuring absorbance at 340 nm for 10 min on a BMG Labtech CLARIOstar plate reader (BMG Labtech, Cary, North Carolina, United States of America).

The next experiment deals with T7, human DPP3 (hDPP3) (Homo sapiens, UniProt Q9NY33).
T7 construct: FLAG (C); host or cells: HEK293T, transient transfection; soluble proteome used unpurified
T7 sequence (Q9NY33 1-737): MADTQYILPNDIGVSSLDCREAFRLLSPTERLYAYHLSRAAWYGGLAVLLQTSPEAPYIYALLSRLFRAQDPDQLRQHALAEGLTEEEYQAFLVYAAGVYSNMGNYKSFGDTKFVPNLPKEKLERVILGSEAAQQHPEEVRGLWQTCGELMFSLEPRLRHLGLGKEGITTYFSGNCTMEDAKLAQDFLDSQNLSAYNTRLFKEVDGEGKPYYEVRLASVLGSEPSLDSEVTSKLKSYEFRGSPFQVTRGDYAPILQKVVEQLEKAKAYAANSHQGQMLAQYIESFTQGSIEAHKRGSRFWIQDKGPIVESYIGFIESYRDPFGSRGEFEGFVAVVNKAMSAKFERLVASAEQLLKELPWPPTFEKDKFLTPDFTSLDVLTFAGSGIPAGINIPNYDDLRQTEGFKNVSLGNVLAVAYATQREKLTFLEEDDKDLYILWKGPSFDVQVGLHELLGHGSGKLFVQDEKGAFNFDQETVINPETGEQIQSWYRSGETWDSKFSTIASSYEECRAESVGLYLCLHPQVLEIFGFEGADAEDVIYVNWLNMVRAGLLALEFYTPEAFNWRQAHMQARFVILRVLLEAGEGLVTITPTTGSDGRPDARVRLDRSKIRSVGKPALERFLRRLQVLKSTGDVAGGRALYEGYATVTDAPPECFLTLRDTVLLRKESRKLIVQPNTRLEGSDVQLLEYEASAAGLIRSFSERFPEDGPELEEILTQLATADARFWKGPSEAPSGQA
Description: Gel-based competitive chemical proteomic screen with HHS-482, recombinant hDPP3-HEK293T soluble proteomes. It counts as binding. Conditions: 50 μM fragment, 37° C., 30 min; also substantial proteome cross-reactivity. The procedure: as §4
(§5) Cell pellets were lysed in PBS and fractionated (100,000×g, 45 min, 4° C.) to generate soluble and membrane fractions. Protein concentrations were determined using Bio-Rad DC protein assay (Bio-Rad Laboratories, Inc., Hercules, California, United States of America), and adjusted to 1 mgml^−1 in PBS. Proteome samples (49 μl aliquots) were treated with DMSO vehicle or indicated concentration of SuTEx fragment (1 μL, 50× stock in DMSO) for 30 min at 37° C. Samples were then treated with HHS-482 probe (1 μL, 2.5 mM stock in DMSO) for 30 min at 37° C. Probe labeled samples were conjugated to rhodamine-azide (1 μL, 1.25 mM stock; final concentration of 25 μM) by copper-catalyzed azide-alkyne cycloadditions (CuAAC) for 1 h at room temperature followed by SDS-PAGE and in-gel fluorescence scanning as previously described^57.

For another experiment, the target named is T8, human GSTP1 (hGSTP1) (Homo sapiens, UniProt P09211).
T8 construct: FLAG (C); host or cells: HEK293T, transient transfection; soluble proteome used unpurified
T8 sequence (P09211 whole entry): as the sequence (P09211 whole entry) above
Description: Gel-based competitive chemical proteomic screen with HHS-482, recombinant hGSTP1-HEK293T soluble proteomes. Type of experiment: binding. Conditions: fragment 50 μM, 30 min, 37° C. The procedure: as §4, §5

The target of another experiment is T9, GSTP1 Y8 (Homo sapiens, UniProt P09211).
T9 construct: endogenous in cells; host or cells: DM93 melanoma cells (SILAC)
T9 sequence (P09211 whole entry): as the sequence (P09211 whole entry) above
Description: Quantitative chemical proteomics of live SILAC DM93 cells treated with SuTEx fragments. Conditions: 50 μM compound, 1.5 hr, 37° C. It counts as cell-based. The procedure:
Live Cell Evaluation of Sulfonyl-Triazole Fragments
(§6) Cells grown to ˜90% confluency in 10 cm plates were treated with DMSO vehicle or SuTEx fragment (10 μl of 1,000× stock) in serum-free media for the indicated concentrations and times at 37° C. with 5% CO2. After treatment, cells were washed with cold PBS twice before collection and preparation for gel-based chemical proteomic evaluation as described above. For LC-MS studies, protein concentrations were normalized to 2.3 mg ml^−1 and 432 μl (for 1 mg final protein amount) were used for sample preparation as detailed below.
Heavy and light proteomes (432 μl of each) were diluted to 2.3 mg ml^−1 in PBS and sample aliquots (432 μl) were treated with SuTEx fragment at the indicated concentrations (5 μl, 100× stock in DMSO), mixed gently and incubated for 30 min at 37° C. Samples were then treated with HHS-482 (5 μL, 5 mM stock in DMSO) for 30 min at 37° C. Probe-modified proteomes were conjugated to desthiobiotin-PEG3-azide followed by enrichment of probe-modified peptides for nano-electrospray ionization-LC-MS/MS analyses as previously described^57.
Next, SILAC DM93 cells were treated with JWB152 or JWB198 to determine whether these SuTEx fragments could ligand Y8 of endogenous GSTP1 in living systems (50 μM compound, 1.5 hr, 37° C.). Cells were pretreated with DMSO vehicle or SuTEx fragments followed by cells lysis, HHS-482 labeling of proteomes, and quantitative chemical proteomics.

For the next experiment, the target named is T10, GSTP1 (Homo sapiens, UniProt P09211).
T10 construct: FLAG (C); expressed in transfected cells; host or cells: HEK293T
T10 sequence (P09211 whole entry): as the sequence (P09211 whole entry) above
Put plainly: Gel-based evaluation of proteomes from recombinant GSTP1-HEK293T cells treated with SuTEx fragments. Type of experiment: cell-based. Conditions: 50 μM compounds, 4 hr. The procedure: as §5, §6

T3 sequence (Q9BQB6 whole entry): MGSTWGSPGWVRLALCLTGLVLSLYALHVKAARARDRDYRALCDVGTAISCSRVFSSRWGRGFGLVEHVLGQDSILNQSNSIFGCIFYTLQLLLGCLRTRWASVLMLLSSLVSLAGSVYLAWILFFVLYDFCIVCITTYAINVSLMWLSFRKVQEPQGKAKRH
T4 sequence (Q9P032 whole entry): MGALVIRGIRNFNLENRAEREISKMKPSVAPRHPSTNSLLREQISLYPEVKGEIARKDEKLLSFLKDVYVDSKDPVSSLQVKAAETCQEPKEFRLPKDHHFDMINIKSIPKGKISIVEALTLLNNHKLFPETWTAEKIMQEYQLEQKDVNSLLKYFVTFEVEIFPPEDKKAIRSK
T1 sequence (P51970 whole entry): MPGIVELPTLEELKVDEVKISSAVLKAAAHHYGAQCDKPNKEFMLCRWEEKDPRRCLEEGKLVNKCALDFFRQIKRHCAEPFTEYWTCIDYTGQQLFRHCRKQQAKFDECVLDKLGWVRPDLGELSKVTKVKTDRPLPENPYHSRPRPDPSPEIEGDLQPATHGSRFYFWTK

For the compound `C#CCNC(=O)c1ccc(S(=O)(=O)n2cc(CCN3CCC(=C(c4ccc(F)cc4)c4ccc(F)cc4)CC3)nn2)cc1` [TH211, 4-((4-(2-(4-(Bis(4-fluorophenyl)methylene)piperidin-1-yl)ethyl)-1H-1,2,3-triazol-1-yl)sulfonyl)-N-(prop-2-yn-1-yl)benzamide], the “Modified Amino Acid Number” value in experiment [1] is 172; in [2] it was 97; in experiment [3] (lysine residue 152), 152; in experiment [3] (lysine residue 159), 159; in experiment [4], 24; in experiment [5] (NDUA5 human, Uniprot Q16718), 30. Further, the “Modified Amino Acid Number” value came to 39 in experiment [5] (NDUB3 human, Uniprot O42676); 455 in [5] (NU5M human, Uniprot P03915); 166 in experiment [5] (PYRD human, Uniprot Q02127). The “fluorescent labeling of recombinant human DGKA” value in experiment [6] is “concentration dependent manner”.

Turning to `N#Cc1ccc(S(=O)(=O)n2cnc(-c3ccc(C(F)(F)F)cc3)n2)cc1` [JWB152, 4-((3-(4-(Trifluoromethyl)phenyl)-1H-1,2,4-triazol-1-yl)sulfonyl)benzonitrile], the half-inhibitory concentration (IC50) in experiment [7] turned out to be 23 µM. For the same compound, the “competition against recombinant DPP3” value on human DPP3 (hDPP3) is given as “potent competition”. Besides, the “block of HHS-482 labeling of GSTP1” value on human GSTP1 (hGSTP1) is listed as “block HHS-482 labeling to levels comparable with Y8F mutant”. Besides, the “blockade of HHS-482 labeling of native GSTP1 Y8 in live cells” value at GSTP1 Y8 is given as around 20%. Also, on GSTP1, the “HHS-482 labeling of GSTP1 after live cell treatment” value is given as “reduced HHS-482 labeling”.
